Literature values, collected in patent US20150110862A1, “Sweet Gum Fruit Extract as a Therapeutic Agent” (Board of Supervisors of Louisiana State University and …, priority 2007, published 2015).
In brackets after ≈: the same amount, converted by molar mass.

Tests used:
two-stage carcinogenesis = settings: literature
[1] = system: UVB-radiation-induced photocarcinogenesis; settings: oral administration, literature
[2] = system: 39 human cancer cell lines; settings: literature
[3] = system: human prostate cancer PC3 cells; settings: published articles

Structure (SMILES)	anti-tumor activity, two-stage carcinogenesis assay (two-stage carcinogenesis)	tumor incidence and tumor multiplicity vs control group [1]	cytotoxicity against 39 human cancer cell lines [2]	IC50 against human prostate cancer PC3 cells (reported) [3] [µg/mL]
C=C(C)C1CCC2(C(=O)O)CCC3(C)C(CCC4C56CCC(O)(OC5)C(C)(C)C6CCC43C)C12 (stereo not drawn) [3β,25-epoxy-3α-hydroxylup-20(29)-en-28-oic acid]	moderate inhibitory activities	approximate halving of the tumor incidence and tumor multiplicity	–	–
C=C(C)[C@@H]1CC[C@]2(C(=O)O)CC[C@]3(C)[C@@H](CC[C@@H]4[C@@]5(C)CCC(=O)C(C)(C)[C@@H]5[C@H](O)C[C@]43C)[C@@H]12 [6β-hydroxy-3-oxolup-20 (29)-en-28-oic acid]	–	–	weaker activity	–
CC1(C)CCC2(C(=O)O)CCC3(C)C(=CCC4C5(CO)CCC(O)C(C)(C)C5CCC43C)C2C1 (stereo not drawn) [3α,25-dihydroxyolean-12-en-28-oic acid]	–	–	weaker activity	–
CC(=O)OC[C@]12CC[C@@H](O)C(C)(C)[C@@H]1CC[C@]1(C)[C@@H]2CC=C2[C@@H]3CC(C)(C)CC[C@]3(C(=O)O)CC[C@]21C [Terpenoid 1, 25-acetoxy-3α-hydroxyolean-12-en-28-oic acid]	moderate inhibitory activities	–	strong cytotoxicity	5.9 (≈ 11.5 µM)
CC1(C)CCC2(C(=O)O)CCC3(C)C(=CC(=O)C4C5(C)CCC(=O)C(C)(C)C5CCC43C)C2C1 (centres unmarked) [3,11-dioxoolean-12-en-28-oic acid]	–	–	weaker activity	–
